From patent US20250129370A1, “METHOD FOR REDUCING HEPATIC TRIGLYCERIDES” (ADAERATA, LIMITED PARTNERSHIP, priority 2022, published 2025)

System: PCSK7 mRNA
Assay: PCSK7 mRNA qPCR after miRNA overexpression in Huh7 cells
Format: cell-based, human
Details: Huh7, 48 hours following transfection, vs mock vector
Method: RNA was isolated from the cells with the TRIzol™ Reagent (Invitrogen, USA) according to the manufacturer's instructions. The RNA samples were treated with RNase-free DNase I (Fermentas, USA) to eliminate any possible DNA contamination. Reverse transcription was performed using the PrimeScript™ First Strand cDNA Synthesis Kit (Takara, Japan) following the manufacturer's protocol. Briefly, one unit of the DNase I enzyme, 1 μL of a buffer, and 1 μg of total RNA were incubated for 30 minutes at 37° C. Then, 1 μL of 50 mM EDTA was added for enzyme inactivation and incubated at 65° C. for 10 minutes. Subsequently, 5 μL of DNase-treated RNA was added to the mix of 0.5 μL of the reverse-transcriptase enzyme, 2 μL of the reverse-transcriptase buffer, and 1 μL of a random hexamer and incubated for 15 minutes at 37° C., followed by 5 seconds at 85° C. for enzyme inactivation. Stem-loop RT-qPCR method was applied for evaluating the expression of miRNAs (Kramer, 2011). […]
All the reactions were repeated in duplicates. Next, melt curves were analyzed, with the mean threshold cycles used for further analyses. The relative expressions of the miRNAs and PCSK7 to RNU48 small nuclear RNA and/or GAPDH and β2m were calculated, respectively, via the 2-ΔΔCt method. […]

miR-125a-5p: miRNA targeting PCSK7 3′-UTR and exons 14 and 15, overexpressed from pEGFP-C1 precursor vector (UCCCUGAGACCCUUUAACCUGUGA; miRNA expressed from a pEGFP-C1 precursor vector, further chemistry not given here)
effect on expression of PCSK7 mRNA: did not reach statistical significance
